Counter-ions that a name gives are not always drawn. Bounds are passed on as bounds.

For experiment [1], the target named is human recombinant SIRT2 deacetylase (Homo sapiens (Human), UniProt Q8IXJ6). Description: Sirtuin biochemical deacetylation assay, SIRT2. As to the method:
Modulation of sirtuin activity by compounds was assessed using the Flour de Lys fluorescent biochemical assay in a 96-well format as described (Outeiro et al., 2007). The deacetylation reaction was performed at 37° C. for an hour in the presence of human recombinant enzymes: SIRT1 (BioMol-SE-239) 1 unit/per reaction, SIRT2 (BioMol-SE-251) 5 units/per reaction, or SIRT3 (BioMol-SE-270) 5 units/per reaction, compound of interest, standard buffer, 50 μM substrate, and 500 μM NAD^+ according to the manufacturer's protocol. […]

Experiment [2] relates to NQO1. The experiment can be described thus: Quantitative NQO1 inducer bioassay in Hepa1c1c7 cells. The format is cell-based, murine. As to conditions: for EC (2-fold NQO1 activity): Mus musculus, Hepa-1c1c7, Table 3, Concentration which Doubles the specific activity of NQO1, read-out: NQD1 CD; for EC (2-fold NQO1 activity) / CD value (Concentration which Doubles the specific activity of NQO1): 48 hr exposure; for Effect of GSH pre-incubation on NQO1 inducer potency: 1 mM GSH at 37° C. for 30 min before cell treatment; for CD value (Concentration which Doubles the specific activity of NQO1): Hepa1c1c7 cells.
Description: Cells grown in 96-well plates were exposed to serial dilutions of each compound for 48 hr, and the NQO1 enzyme activity was determined in cell lysates. Results are shown as average values of 8 replicate wells. The standard deviation in each case was less than 5%.
Next, using a quantitative NQO1 inducer bioassay in murine Hepa1c1c7 cells and the CD value (Concentration which Doubles the specific activity of NQO1) as a measure of potency (see Table 2), the activities of the MIND4 analogs were tested and ranked.
Inducer potency was quantified by use of the NQO1 bioassay in Hepa1c1c7 cells as described [Prochaska, 1988]. To examine the effect of GSH on inducer potency, compounds were incubated in cell culture medium containing 1 mM GSH at 37° C. for 30 min before cell treatment.

The test system of experiment [3] is NRF2-responsive proteins NQO1 and GCLM. Description: Induction of NQO1 and GCLM proteins in differentiated ST14A cells (immunoblotting). The format is cell-based, rat. As to conditions: differentiated HD mutant and wild type ST14A cells, 24 hours. The method, then:
(§1) To assess protein levels, cell extracts were prepared from cells washed with PBS and lysed with buffer containing 2% SDS, Complete EDTA-free Protease Inhibitor Cocktail (Roche) and 1 mM phenylmethylsulfonyl fluoride. To prepare brain extracts for analysis, frozen mouse cortical tissues were homogenized in PBS containing protease inhibitors with an Kontes Pellet Pestle (Kimble/Kontes). They were later sonicated and lysed overnight at 4° C. in 2× volume of lysis buffer containing 2% SDS and protease inhibitors. Protein concentrations in ST14A cell extracts and homogenized cortical tissues were evaluated using a BCA analysis kit and normalized. Samples were prepared in a SDS buffer containing DTT and separated on bis-acrylamide protein gels via electrophoresis and transferred onto a 0.2 μm PVDF membrane). Membranes were probed for NQO1 (Sigma N5288, 1:1,000), GCLM, (Abcam ab126704, 1:800), SIRT2 (Sigma S8447, 1:2,500), histone H3 (Cell Signaling 4499, 1:2,000), acetylated H3 (K56) (Millipore 04-1135, 1:500), TNFα (Abcam ab1793, 1:1,500), GADPH (Millipore MAB374, 1:10,000), actin (Sigma A2066, 1:1250), α-tubulin (Sigma T6074, 1:20,000), and acetylated α-tubulin (Sigma T6793, 1:2,500) overnight in 5% milk in PBST at 4° C. on a rocker. Membranes were thrice washed in PBST for 15 min on a shaker and incubated in either an anti-rabbit-HRP (Bio-Rad 170-5046, 1:10,000) or anti-mouse-HRP (Sigma A3682, 1:4,000) secondary solution as appropriate in 3% milk in PBST for 1 hr at room temperature on a rocker. After four washes of 15 min in PBST on a shaker, blots were visualized using SuperSignal West Pico Chemiluminescent Substrate (Pierce 34080) or SuperSignal West Dura Extended Duration Substrate (Thermo 34075) and exposed on Scientific Imaging Film (Kodak 864 6770).
Compound bioactivity was tested in the rat embryonic striatal cell lines ST14A, which stably express either a mutant expanded repeat (128Q) or wild type (26Q) 546 amino acid huntingtin (HTT) fragment (a generous gift of E. Cattaneo) (Ehrlich et al., 2001) ST14A cells were propagated at 33° C. in the presence of serum. To induce neuronal differentiation, cells were serum deprived and cultured at 37° C. in the presence of N2 supplement. Cells were treated with compounds concurrently with induction of neuronal differentiation for 24 hours, as described (Quinti et al., 2010).
The NRF2 activation properties of further MIND4 structural analogs with variable potencies of SIRT2 inhibition were tested as described previously (see Table 1) Changes in expression of the canonical NRF2-responsive proteins NQO1 and GCLM, the transcription of which was induced by MIND4, was selected as a readout of pathway activation. Protein levels of NQO1 and GCLM were examined by immunoblotting in compound treated mutant HD and wild-type ST14A cells. […] This hypothesis was tested using a second panel of MIND4 analogs (see Table 3).
Background: A western blot detects proteins with antibodies after separation by electrophoresis.

Experiment [4] relates to NRF2/KEAP1 in MEFs. Description: NQO1 and NRF2 levels in mouse embryonic fibroblasts (MEFs), western blot. The format is cell-based. As to conditions: wild-type MEFs, 5 hr exposure. The method, then:
Mouse embryonic fibroblasts (MEFs) from wild-type (WT), NRF2-knockout (NRF2-KO) or KEAP1-knockout (KEAP1-KO) mice, were cultured in plastic dishes (Invitrogen) coated for 30 min with 0.1% (w/v) gelatin before use. The cell culture medium was Iscoves Modified Dulbecco's Medium (with L-glutamine) supplemented with human recombinant epidermal growth factor (10 ng/mL), 1× insulin/transferrin/selenium, and 10% (v/v) heat-inactivated FBS, all from Invitrogen. Cells were maintained at 5% CO2 in air at 37° C. For experiments, cells (250,000 per well) were grown for 24 hr on 6-well plates, and then treated with solvent control (0.1% DMSO, v/v) or compounds for either 5 hr or 24 hr. For western blot analysis, cells were washed twice with ice-cold phosphate buffered saline (PBS) and lysed in 150 μl of RIPA buffer (50 mM Tris-Cl pH 7.5, 150 mM NaCl, 0.5% sodium deoxycholate, 1% NP-40, 0.1% SDS and 1 mM EDTA), containing 1 protease inhibitor cocktail tablet (Roche) per 10 ml of buffer. Cell debris were removed by centrifugation at 16,300×g for […] at 4° C., and protein concentrations were determined by the BCA assay (Thermo). Proteins were resolved by SDS/PAGE, transferred to immobilon-P membranes, and probed with specific antibodies against NQO1 (1:1000) or NRF2 (1:1000). Equal loading was confirmed by probing the blots with an antibody against β-actin (mouse monoclonal, 1:10000), from Sigma, Dorset, United Kingdom.
For nuclear-cytoplasmic separation, WT MEFs (500,000 per dish) were grown for 24 hr on 6-cm plates, and then treated with solvent control (0.1% DMSO, v/v) or 0.5 μM MIND4-17. At the end of each treatment time, cells were placed on ice and washed twice with ice-cold PBS and subsequently lysed in buffer A [10 mM KCl, 5 mM MgCl2, 50 mM Tris-HCl (pH 7.5), 0.5% Nonidet P-40 (Roche), 1 mM dithioretitol (DTT) (Sigma), containing one protease inhibitor tablet and one phosphatase inhibitor tablet (both from Roche) per each 10 ml of buffer]. The lysates were subjected to centrifugation (Spectrafuge 24D, Labnet) at 1,000×g for 5 min at 4° C. The supernatant (cytoplasmic fraction) was transferred to a fresh Eppendorf tube. The pellet (nuclear fraction) was washed three times in buffer A before being dissolved in buffer B [2% SDS, 150 mM NaCl, 65 mM Tris-HCl (pH 8.0)] and sonicated for 30 sec. Finally, the lysates were subjected to western blot analysis. The blots were probed with antibodies against GAPDH (rabbit polyclonal, 1:5000) and Lamin A/C (rabbit polyclonal, 1:1000, Gene Tex, Calif., United States of America) to confirm fraction purity and equal protein loading.

The test system of experiment [5] is α-tubulin K40 and histone H3 acetylation. Description: Acetylation of SIRT2 substrates in wild type primary cortical neurons. Further details: α-Tubulin acetylation: dose or concentration left out as unconfirmed. The format is cell-based, mouse. As to conditions: primary neurons. The method, then: as §1
Based upon the robust neuroprotection observed in HD model systems expressing both mutant HTT fragments and full-length mutant HTT, verification of the bioactivity of MIND4 as SIRT2 inhibitor in primary neurons was sought. […]

Chain of human recombinant SIRT2 deacetylase (Q8IXJ6 whole entry): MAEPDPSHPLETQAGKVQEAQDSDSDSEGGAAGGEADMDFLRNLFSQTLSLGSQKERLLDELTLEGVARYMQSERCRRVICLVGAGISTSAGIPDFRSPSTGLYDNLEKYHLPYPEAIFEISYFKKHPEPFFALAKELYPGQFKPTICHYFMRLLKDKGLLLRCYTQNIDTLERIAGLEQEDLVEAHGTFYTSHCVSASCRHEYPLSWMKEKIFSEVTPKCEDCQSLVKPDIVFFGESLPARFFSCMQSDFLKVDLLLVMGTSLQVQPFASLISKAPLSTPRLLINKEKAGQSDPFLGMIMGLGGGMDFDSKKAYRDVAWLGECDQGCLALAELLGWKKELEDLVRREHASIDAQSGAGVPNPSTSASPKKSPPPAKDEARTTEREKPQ

A word on the IC50: it is the concentration needed to halve the response being measured. As for `Clc1ccc(-n2c(COc3cccc4ccccc34)nnc2SCc2ccccc2)cc1` [MIND4-2], the IC50 in experiment [1] (Table 1) was 12 µM.

As for `c1ccc(CSc2nnc(COc3cccc4ccccc34)n2-c2ccccc2)cc1` [MIND4-11], the IC50 in experiment [1] (Table 1) and in experiment [1] (Table 3) was 4.5 µM throughout. For the same compound, the EC (2-fold NQO1 activity) in experiment [2] is more than 10 µM.

In the case of `c1ccc(CSc2nnc(COc3cccc4cccnc34)n2-c2ccccc2)cc1` [MIND4-12], the IC50 in experiment [1] (Table 1) was found to be 9 µM.

For `O=[N+]([O-])c1ccc(Sc2nnc(COc3ccccc3)[nH]2)nc1` [MIND4-17-3], the IC50 in experiment [1] (Table 3) was more than 50 µM. Besides, the EC (2-fold NQO1 activity) in experiment [2] stood at 7.5 µM.

As for `O=[N+]([O-])c1ccc(Sc2nnc(Cc3ccccc3)n2-c2ccccc2)nc1` [MIND4-17-15], the IC50 in experiment [1] (Table 3) is more than 50 µM. In experiment [2], the EC (2-fold NQO1 activity) was determined as 0.3 µM.

Turning to `O=[N+]([O-])c1ccc(Sc2nnc(-c3ccc(Cl)cc3)n2-c2ccccc2)nc1` [MIND4-17-33], the “Induction of NRF2-responsive proteins NQO1 and GCLM” value (from here on “Induction”) in experiment [3] was “potent induction of NQO1 protein”. Moreover, the concentration for half-maximal inhibition (IC50) in experiment [1] (Table 3) turned out to be 7.5 µM. Further, in experiment [2], the “Effect of GSH pre-incubation on NQO1 inducer potency” value (“Effect of GSH pre-incubation” below) is given as “significantly affected by pre-incubation with GSH”, the “CD value (Concentration which Doubles the specific activity of NQO1)” value (“CD value” below) came to 0.3 µM and the EC (2-fold NQO1 activity) was found to be 0.3 µM.

Turning to `O=[N+]([O-])c1cnc(Sc2nnc(-c3ccc(Cl)cc3)n2-c2ccccc2)c(Br)c1` [MIND4-17-56], in experiment [3], the “Induction” value is recorded as “lower potency in its ability to induce NQO1”. The concentration for half-maximal inhibition (IC50) in experiment [1] (Table 3) was found to be 0.75 µM. In experiment [2], the “Effect of GSH pre-incubation” value is “much more modest”, the “CD value” value worked out at 2.5 µM and the EC (2-fold NQO1 activity) came out at 2.5 µM.

`c1ccc(CSc2nnc(COc3ccccc3)n2-c2ccccc2)cc1` [MIND4-19]: the IC50 in experiment [1] (Table 1) is 7 µM.

Consider `Brc1cccc(CSc2nnc(COc3ccccc3)n2-c2ccccc2)c1` [MIND4-20], for which, in experiment [1] (Table 1), the IC50 was determined as 5 µM.

For the compound `O=[N+]([O-])c1ccc(CSc2nnc(COc3ccccc3)n2-c2ccccc2)cc1` [MIND4-21], the IC50 in experiment [1] (Table 1) and in experiment [1] (Table 3) was 10 µM in each case.

Regarding `c1ccc(CSc2nnc(COc3cccc4ccccc34)n2Cc2ccccc2)cc1` [MIND4-22], the IC50 in experiment [1] (Table 1) amounted to 6 µM.

For `COc1ccc(CSc2nnc(COc3cccc4ccccc34)n2Cc2ccccc2)cc1` [MIND4-23], the concentration for half-maximal inhibition (IC50) in experiment [1] (Table 1) amounted to 9 µM.

`O=[N+]([O-])c1ccc(Sc2nnc(-c3ccccc3)n2-c2ccccc2)c2ncccc12` [MIND4A]: the “Induction” value in experiment [3] was “higher potency induction”. Also, the half-inhibitory concentration (IC50) in experiment [1] (Table 3) is 7.5 µM. In experiment [1] (dose-response), the SIRT2 inhibition entry was “lower potency of SIRT2 inhibition”. Further, in experiment [2], the “Effect of GSH pre-incubation” value is “much more modest”, the “CD value” value is 1 µM and the EC (2-fold NQO1 activity) came out at 1 µM.

In the case of `Cn1cnnc1Sc1ccc([N+](=O)[O-])c2cccnc12` [MIND4B], in experiment [1] (Table 3), the IC50 is more than 50 µM. Moreover, the EC (2-fold NQO1 activity) in experiment [2] amounted to 2 µM.

With `O=[N+]([O-])c1ccc(Sc2nnc(COc3ccccc3)n2-c2ccccc2)c2cccnc12` [MIND4C], in experiment [3], the “Induction” value was “weaker activation”. Moreover, the half-inhibitory concentration (IC50) in experiment [1] (Table 3) was more than 20 µM. Moreover, the “Accumulation of total NRF2 protein” value in experiment [4] is listed as “to much lesser extent”. For the same compound, the EC (2-fold NQO1 activity) in experiment [2] came out at 5 µM.

Turning to `COC(=O)/C=C/C(=O)OC` [dimethyl fumarate, reference compound], the “Induction” value in experiment [3] was “dose-dependent induction of NQO1 protein”. In experiment [2], the “CD value” value is 9 µM.

For the compound `C[S+]([O-])CCCCN=C=S` (stereo not drawn) [sulforaphane, reference compound], in experiment [4], the “Accumulation of total NRF2 protein” value was “readily detectable”. Further, the “CD value” value in experiment [2] turned out to be 0.18 µM.

Take `O=C(CCCCCCC(=O)Nc1ccc([C@H]2O[C@@H](CSc3nc(-c4ccccc4)c(-c4ccccc4)o3)C[C@@H](c3ccc(CO)cc3)O2)cc1)NO` [tubacin, reference compound]: the α-Tubulin acetylation result in experiment [5] is “significantly increased α-tubulin acetylation”.

The record behind these values is patent US9737525B2, “Small molecule activators of NRF2 pathway” (The General Hospital Corporation, priority 2013, dated 2017).
